Data as given in article PMC4912613, “A broad analysis of resistance development in the malaria parasite” (Nature Communications, 2016).

Tests used:
[1] = tested on: ATQ-R5 (cytb F267V, parent 3D7); assay: Cross-resistance EC50 assay, ATQ-R5; assay type: cell-based, Plasmodium falciparum; settings: Plasmodium falciparum, 3D7; SYBR green 72 hour assay; asynchronized parasites; 96-well or 1536-well format; ATQ-R5
Excerpt: (§1) To evaluate potential overlapping activity against known antimalarial drug targets, we performed dose-response studies with each compound against our assembled set of drug-resistant lines and their corresponding parents, in an asexual blood stage proliferation assay (Table 1). Comparisons were made to the drug-sensitive strain 3D7 when a parent was unavailable (TM90C2A, W2 and Dd2). As laboratories conducted EC50 assays with different strains and protocols, all comparisons were made between assays from the same laboratory and under the same assay conditions. Compounds displaying >5-fold EC50 shifts relative to the parent or sensitive strain were flagged as having potentially non-novel targets. Average fold shifts per strain ranged from 0.82 to 2.34, with a median of 1.23 indicating there was not common resistance to any one resistant clone. No resistance patterns were observed when classifying the compounds based on chemical structure, but this was not surprising given the diversity of compounds chosen. On the other hand, given that these confirmed compounds were derived from larger unconfirmed hit lists to which some filtration criteria may have been applied (for example, elimination of obvious dihydrofolate reductase inhibitors[32]), some[10][11][12][13] pre-existing bias may exist in the set. […]
(§2) Alternatively, a SYBR Green-based proliferation approach was used for the 72-h assay, as previously described. Briefly, a culture of either synchronized or asynchronous parasitized RBCs (0.3% parasitemia and 4% haematocrit) in screening medium (identical to supplemented medium above except no serum was added) was exposed to serial drug dilutions. Plates were incubated at 37 °C and gassed with 93% N2, 4% CO2 and 3% O2 for 72 h. Following incubation, 10 × SYBR Green I (Invitrogen; supplied in 10,000 × concentration) in lysis buffer ([…], 5 mM EDTA, 0.16% Saponin wt per vol and 1.6% Triton X vol per vol) was added to the wells and the plates were incubated overnight at room temperature before plate reading. EC50 assays were repeated three times, taking the average EC50 value from each assay set, and removing any outliers using a single iteration of Grubbs' test, eliminating values with z-scores above the critical z-value (α=0.05). The raw EC50 values for synchronized parasites assayed in a 384-well format are listed in Supplementary Data 4. The raw EC50 values for asynchronous parasites assayed in a 96 or 1536-well format are listed in Supplementary Data 5.
(§3) EC50 values for each strain were compared with those of the corresponding parent strain to determine fold-shift changes and identify resistance. To minimize the cause variance between assays, all comparisons were conducted between strains assayed under identical conditions. A one-way ANOVA followed by a Dunnet's post-test was conducted in GraphPad Prism to identify significant changes between the parent and resistant strain.

[2] = tested on: GNF449-R2 (PfATP4 I203L and P990R, parent Dd2); assay: Cross-resistance EC50 assay, GNF449-R2; assay type: cell-based; settings: Plasmodium falciparum, SYBR green 72 hour assay, asynchronized parasites, 96-well or 1536-well format
Excerpt: as §1, §2, §3

[3] = tested on: P. falciparum 3D7, Dd2, Dd2Δexo; assay: In vitro evolution of compound-resistant lines (selection); assay type: cell-based, Plasmodium falciparum; settings: for Time Length to Obtain Mutants: in vitro selection; for # of Resistant Strains Generated: resistant cultures out of three independent cultures; for EC50 fold shifts observed: selected parasites vs selection parent
Excerpt: While we found an overall lack of pre-existing resistance, analysing the onset of resistance was critical, as compounds resulting in rapid resistance are not ideal for clinical development. We therefore sought to create drug-resistant parasites using a variety of different selection methods. We implemented either a high-dose method or a ramp-up/pulse method for our in vitro selections. Two of the 50 compounds—MMV028895 and MMV665824—were removed from the selection study during experimentation. […] Out of the remaining 48 compounds, resistant parasites were obtained for 23 (Supplementary Data 1). As each selection was performed in triplicate with three independent cultures, we succeeded in generating a total of 66 resistant cultures. Parasites resistant to MMV026596 were not obtained despite 100 days of selection, but the cultures acquired hypersensitivity to mefloquine with a 10-fold reduction in EC50 compared with its parental line, 3D7. For the remaining 24 compounds, acquisition of resistant parasites was unsuccessful despite numerous attempts over an extensive period of time.
Based on the compound speed of action and lab specialty, selections were conducted using a high-pressure intermittent selection method, a step-wise selection method, or a constant selection method. For high-pressure selections, ∼1–2 × 10^9 parasites were treated at a concentration of 3–10 × EC50 until parasites could not be seen by microscopy (4–10 days). Following treatment, compound pressure was removed and cultures were allowed to recover. Once healthy parasites were seen and parasitemia reached ∼2%, compound pressure was reinstated. For step-wise selections, ∼1 × 10^8 parasites were treated at a starting concentration resulting in a reduced growth rate of 50%. Cultures were examined daily by microscopy, increasing compound concentration in increments of 5–10% as needed to maintain a 50% reduced growth rate. Selections were carried out until cultures achieved a reproducible EC50 fold shift of >3 × . Finally, constant selections were conducted in a similar manner to the high-pressure intermittent method with the exception that compound pressure was never removed. Following successful selection, cultures were cloned out using a limiting dilution method as previously described. Selections were terminated after 200 days if resistance could not be obtained.

[4] = tested on: CYTb-G131S (cytb G131S, parent Dd2); assay: Cross-resistance EC50 assay, CYTb-G131S; assay type: cell-based, Plasmodium falciparum; settings: Plasmodium falciparum, SYBR green 72 hour assay, synchronized parasites, 384-well format
Excerpt: as §1, §2, §3

HepG2 = assay: Hepatocyte toxicity; assay type: cell-based, human; settings: for Hepatocyte Toxicity: HepG2; for EC50 fold shift compared to asexual stage: Hepatocyte Toxicity: hepatocyte toxicity / 3D7 EC50; for Liver Stage / Hepatocyte Toxicity: toxicity fold shift for the liver stage (hepatocyte toxicity vs liver stage EC50)
Excerpt: As drugs that eliminate multiple stages of the parasite lifecycle will be critical components in global efforts to eliminate malaria, we were interested in knowing whether the compounds in our study had additional activities against either the liver and/or transmission stages of the parasite lifecycle. To determine this, we first evaluated the compounds in additional phenotypic assays. The first assay was a P. berghei hepatocyte invasion and development assay, which predicts causal prophylactic activity. Hepatocyte toxicity was additionally tested to identify false-positive activity in the liver stage due to host-cell toxicity. Assays were executed in duplicate using a 12-point EC50 curve at starting concentrations of 5 μM or 50 μM (Supplementary Table 1).
Liver-stage activity was determined by pretreating hepatic human cells (HepG2) for 2 h with compound in 1,536-well plates infected with freshly dissected P. berghei sporozoites. After 48 h of incubation, the viability of P. berghei exoerythrocytic forms was measured by luminescence reaction light output using BrightGlo (Promega). Varying levels of compound concentration were used (5 μM or 50 μM) due to the stock concentration supplied.

Row | Compound | EC50 [1] | EC50 [2] | Time Length to Obtain Mutants [3] | # of Resistant Strains Generated [3] | EC50 fold shifts observed [3] | EC50 ([4]; strain CYTb:G131S (Dd2 parent)) | Hepatocyte Toxicity (HepG2) | EC50 fold shift compared to asexual stage: Hepatocyte Toxicity (HepG2) | Liver Stage / Hepatocyte Toxicity (HepG2) | EC50 ([4]; DD2, CYTb:G131S strain)
1 | O=C(Nc1ccsc1C(=O)NC1CCCCC1)c1ccc(F)cc1 [MMV665939] | 3.43 µM | 2.21 µM | MODERATE (50-125 days) | 3/3 | 4-6x | 2090 nM | > 5 µM | – | – | –
2 | CCN(CC)CCn1c(=N)n(CC(O)c2ccc(Cl)c(Cl)c2)c2ccccc21.Cl (stereo not shown) [MMV000248] | 0.191 µM | 0.497 µM | LONG (> 125 days) | 0/3 | no shift | 367 nM | 20.64 µM | 67.45 | 3.72 | –
3 | Cc1ccc(Oc2ncccc2C(=O)Cc2cccc3cccnc23)c(C)c1 [MMV020746] | 1.49 µM | 2.63 µM | SHORT (0-50 days) | 3/3 | 6-19x | 327 nM | 31.56 µM | 415.26 | 2.61 | –
4 | CN(C)Cc1ccc(-c2cc3c(-c4ccc(CN(C)C)cc4)ccnc3[nH]2)cc1.O=C(O)C(F)(F)F [MMV022224] | 0.358 µM | 0.518 µM | LONG (> 125 days) | 0/3 | no shift | 343 nM | 2.32 µM | – | 2.90 | –
5 | OC(CNC1CCCCC1)Cn1c2ccc(I)cc2c2cc(I)ccc21 (stereo not shown) [MMV665882] | 0.026 µM | 0.028 µM | LONG (> 125 days) | 3/3 | 2-3x | 46 nM | 13.25 µM | 182.26 | 4.34 | –
6 | Nc1ccc(-c2nc3cc(Oc4ccc(Oc5ccc6[nH]c(-c7ccc(N)cc7)nc6c5)cc4)ccc3[nH]2)cc1 [MMV011895] | 0.525 µM | 0.644 µM | LONG (> 125 days) | 2/3 | 2-4x | 328 nM | > 50 µM | > 300 | – | –
7 | CC(C)(C)OC(=O)N1CCN(c2ccccc2NC(=O)c2cccc(C(F)(F)F)c2Oc2ccc(F)cc2)CC1 [MMV030666] | 0.251 µM | 0.248 µM | LONG (> 125 days) | 0/3 | no shift | 389 nM | 10.17 µM | 20.93 | 16.60 | –
8 | O=C(Nc1ccc(Cl)c(Cl)c1)Nc1ccc(Cl)c(Cl)c1 [MMV665852] | 2.71 µM | 1.95 µM | LONG (> 125 days) | 0/3 | no shift | 1120 nM | 2.594 µM | – | 7.56 | –
9 | CC(NCc1ccccc1)c1cc(Cl)ccc1O (stereo not shown) [MMV665789] | 0.29 µM | 0.201 µM | MODERATE (50-125 days) | 2/3 | 3-7x | 922 nM | > 5 µM | > 4 | – | –
10 | FC(F)(F)c1cccc(Nc2nc3ccccc3nc2Nc2cccc(C(F)(F)F)c2)c1 [MMV665794] | 0.381 µM | 0.37 µM | SHORT (0-50 days) | 0/3 | no shift | 172 nM | 1.374 µM | – | 3.67 | –
11 | COc1cc(C(=O)ON=C(N)Cc2cccc3ccccc23)cc(OC)c1OC [MMV666687] | 0.914 µM | 0.813 µM | LONG (> 125 days) | 0/3 | no shift | 492 nM | 31.52 µM | – | 1.50 | –
12 | Nc1ccc(-c2nc3cc(Cc4ccc5[nH]c(-c6ccc(N)cc6)nc5c4)ccc3[nH]2)cc1 [MMV665943] | 0.042 µM | 0.588 µM | SHORT (0-50 days) | 0/3 | no shift | 410 nM | 14.29 µM | 45.22 | 2.40 | –
13 | COc1ccc(-c2nc(NC(=O)Cc3ccc4c(c3)OCCO4)sc2C)cc1 [MMV019719] | 0.213 µM | 0.405 µM | MODERATE (50-125 days) | 3/3 | 3x | 261 nM | 20.33 µM | 123.96 | 1.94 | –
14 | COc1ccc2c3c([nH]c2c1)[C@H](CO)N(C(C)=O)CC31CCN(C(=O)Nc2ccccc2F)CC1 [MMV673482] | 0.025 µM | 0.007 µM | SHORT (0-50 days) | 2/3 | 7-18x | – | – | – | – | 182 nM
15 | CN(C)CCCN(C)C(=O)C1Cc2cc(-c3ccccc3)ccc2N1S(=O)(=O)c1ccccc1 (stereo not shown) [MMV028895] | 0.879 µM | 2.76 µM | – | – | – | 390 nM | – | – | – | –
